Experimental data taken from US8404679B2, “Pyrrolidine derivatives as NK2 receptor antagonists” (Hoffmann-La Roche Inc., priority 2008, dated 2013).

Molecular target: T1, human NK2 receptor (Homo sapiens, UniProt P21452)
T1 construct: purchased Perkin Elmer biosignal Inc. 6110510
T1 sequence (P21452 1-398): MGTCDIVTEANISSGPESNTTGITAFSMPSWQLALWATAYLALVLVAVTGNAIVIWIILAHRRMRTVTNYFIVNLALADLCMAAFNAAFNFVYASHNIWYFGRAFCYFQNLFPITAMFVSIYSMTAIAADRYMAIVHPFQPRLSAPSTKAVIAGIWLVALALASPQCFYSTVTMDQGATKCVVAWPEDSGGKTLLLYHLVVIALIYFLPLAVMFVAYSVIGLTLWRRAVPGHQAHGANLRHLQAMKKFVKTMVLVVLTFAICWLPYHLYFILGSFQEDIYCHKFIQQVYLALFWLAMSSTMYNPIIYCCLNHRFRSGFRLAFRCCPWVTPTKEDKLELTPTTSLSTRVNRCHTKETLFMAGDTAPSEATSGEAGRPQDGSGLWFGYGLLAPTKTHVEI
Test: [3H]SR48968 competition binding assay
Conditions: [3H]SR48968 displacement, membranes of CHO cells stably expressing recombinant human NK2 receptor; Ki from IC50 by Cheng-Prussoff
Description: [^3H]SR48968 Competition Binding Assay
hNK2 receptor binding experiment were performed using [^3H]SR48968 (Catalog No. TRK398, specific activity: 27.0 Ci/mmol, Amersham, GE Healthcare UK limited, Buckinghamshire, UK) and membrane isolated from CHO cells stably expressing recombinant human NK2 receptor (product No. 6110510, Perkin Elmer biosignal Inc., Shelton, Conn., USA). After thawing, the membrane homogenates were centrifuged at 48,000×g for 10 min at 4° C., the pellets were resuspended in the 50 mM Tris-HCl, 3 mM MnCl2, 4 μg/mL Chymostatin, 0.04% BSA binding buffer at pH 7.4 to a final assay concentration of 6.5 μg protein/well. For inhibition experiments, membranes were incubated with [^3H]SR48968 at a concentration equal to KD value of radioligand and 10 concentrations of the inhibitory compound (0.0003-10 μM) (in a total reaction volume of 500 μl) for 75 min at room temperature (RT). At the end of the incubation, membranes were filtered onto unitfilter (96-well white microplate with bonded GF/C filter preincubated 1 h in 0.3% polyethylenimine, Packard BioScience, Meriden, Conn.) with a Filtermate 196 harvester (Packard BioScience) and washed 4 times with ice-cold 50 mM Tris-HCl, pH 7.4 buffer. Nonspecific binding was measured in the presence of 10 μM 1-{2-[(R)-3-(3,4-dichloro-phenyl)-1-(3,4,5-trimethoxy-benzoyl)-pyrrolidin-3-yl]-ethyl}-4-phenyl-piperidine-4-carboxylic acid amide. The radioactivity on the filter was counted (5 min) on a Packard Top-count microplate scintillation counter with quenching correction after addition of 45 μl of microscint 40 (Canberra Packard S. A., Zürich, Switzerland) and shaking for 1 h. Inhibition curves were fitted according to the Hill equation: y=100/(1+(x/IC50)^nH), where nH=slope factor using Excel-fit 4 software (Microsoft). IC50 values were derived from the inhibition curve and the affinity constant (Ki) values were calculated using the Cheng-Prussoff equation Ki=IC50/(1+[L]/KD) where [L] was the concentration of radioligand and KD was its dissociation constant at the receptor, derived from the saturation isotherm.

SMILES | Ki [nM]
CN(C(=O)c1ccc2c(c1)OC(F)(F)O2)[C@@H]1CN(C(=O)N2CCN(S(C)(=O)=O)CC2)C[C@H]1c1ccc(Cl)c(Cl)c1 (racemic) [Example 28, rac-2,2-Difluoro-benzo[1,3]dioxole-5-carboxylic acid [(3S,4R)-4-(3,4-dichloro-phenyl)-1-(4-methanesulfonyl-piperazine-1-carbonyl)-pyrrolidin-3-yl]-methyl-amide] | 2.04
CN(C(=O)c1ccc(-n2cccc2)cc1)[C@@H]1CN(C(=O)N2CCN(S(C)(=O)=O)CC2)C[C@H]1c1ccc(Cl)c(Cl)c1 (racemic) [Example 30, rac-N-[(3S,4R)-4-(3,4-Dichloro-phenyl)-1-(4-methanesulfonyl-piperazine-1-carbonyl)-pyrrolidin-3-yl]-N-methyl-4-pyrrol-1-yl-benzamide] | 4.59
CN(C(=O)c1ccc2c(c1)CCO2)[C@@H]1CN(C(=O)N2CCN(S(C)(=O)=O)CC2)C[C@H]1c1ccc(Cl)c(Cl)c1 (racemic) [Example 31, rac-2,3-Dihydro-benzofuran-5-carboxylic acid [(3S,4R)-4-(3,4-dichloro-phenyl)-1-(4-methanesulfonyl-piperazine-1-carbonyl)-pyrrolidin-3-yl]-methyl-amide] | 14.8
CN(C(=O)c1ccc(F)c(Cl)c1)[C@@H]1CN(C(=O)N2CCN(S(C)(=O)=O)CC2)C[C@H]1c1ccc(Cl)c(Cl)c1 (racemic) [Example 32, rac-3-Chloro-N-[(3S,4R)-4-(3,4-dichloro-phenyl)-1-(4-methanesulfonyl-piperazine-1-carbonyl)-pyrrolidin-3-yl]-4-fluoro-N-methyl-benzamide] | 4.57
COc1ccc(C(=O)N(C)[C@@H]2CN(C(=O)N3CCN(S(C)(=O)=O)CC3)C[C@H]2c2ccc(Cl)c(Cl)c2)cc1Cl (racemic) [Example 33, rac-3-Chloro-N-[(3S,4R)-4-(3,4-dichloro-phenyl)-1-(4-methanesulfonyl-piperazine-1-carbonyl)-pyrrolidin-3-yl]-4-methoxy-N-methyl-benzamide] | 8.57
CN(C(=O)c1ccc2nccnc2c1)[C@@H]1CN(C(=O)N2CCN(S(C)(=O)=O)CC2)C[C@H]1c1ccc(Cl)c(Cl)c1 (racemic) [Example 34, rac-Quinoxaline-6-carboxylic acid [(3S,4R)-4-(3,4-dichloro-phenyl)-1-(4-methanesulfonyl-piperazine-1-carbonyl)-pyrrolidin-3-yl]-methyl-amide] | 76.7
CC(C#N)c1cccc(C(=O)N(C)[C@@H]2CN(C(=O)N3CCN(S(C)(=O)=O)CC3)C[C@H]2c2ccc(Cl)c(Cl)c2)c1 (mixture of isomers) [Example 35, rac-3-(Cyano-methyl-methyl)-N-[(3S,4R)-4-(3,4-dichloro-phenyl)-1-(4-methanesulfonyl-piperazine-1-carbonyl)-pyrrolidin-3-yl]-N-methyl-benzamide] | 28.5
CN(C(=O)c1ccc(F)c(C(F)(F)F)c1)[C@@H]1CN(C(=O)N2CCN(S(C)(=O)=O)CC2)C[C@H]1c1ccc(Cl)c(Cl)c1 (racemic) [Example 36, rac-N-[(3S,4R)-4-(3,4-Dichloro-phenyl)-1-(4-methanesulfonyl-piperazine-1-carbonyl)-pyrrolidin-3-yl]-4-fluoro-N-methyl-3-trifluoromethyl-benzamide] | 3.59
COc1ccc(C(=O)N(C)[C@@H]2CN(C(=O)N3CCN(S(C)(=O)=O)CC3)C[C@H]2c2ccc(Cl)c(Cl)c2)cc1 (racemic) [Example 37, rac-N-[(3S,4R)-4-(3,4-Dichloro-phenyl)-1-(4-methanesulfonyl-piperazine-1-carbonyl)-pyrrolidin-3-yl]-4-methoxy-N-methyl-benzamide] | 8.89
CN(C(=O)c1cc(C(F)(F)F)ccc1F)[C@@H]1CN(C(=O)N2CCN(S(C)(=O)=O)CC2)C[C@H]1c1ccc(Cl)c(Cl)c1 (racemic) [Example 38, rac-N-[(3S,4R)-4-(3,4-Dichloro-phenyl)-1-(4-methanesulfonyl-piperazine-1-carbonyl)-pyrrolidin-3-yl]-2-fluoro-N-methyl-5-trifluoromethyl-benzamide] | 9.5
CCN(C(=O)c1ccc(OC)c(C(F)(F)F)c1)[C@@H]1CN(C(=O)N2CCN(S(C)(=O)=O)CC2)C[C@H]1c1ccc(Cl)c(Cl)c1 (racemic) [Example 39, rac-N-[(3S,4R)-4-(3,4-Dichloro-phenyl)-1-(4-methanesulfonyl-piperazine-1-carbonyl)-pyrrolidin-3-yl]-N-ethyl-4-methoxy-3-trifluoromethyl-benzamide] | 68.3
COc1ccc(C(=O)N(C)[C@@H]2CN(C(=O)c3ccc(C#N)cc3)C[C@H]2c2ccc(Cl)c(Cl)c2)cc1C(F)(F)F (racemic) [Example 41, rac-N-[(3S,4R)-1-(4-Cyano-benzoyl)-4-(3,4-dichloro-phenyl)-pyrrolidin-3-yl]-4-methoxy-N-methyl-3-trifluoromethyl-benzamide] | 1.45
COc1ccc(C(=O)N2C[C@@H](N(C)C(=O)c3ccc(OC)c(C(F)(F)F)c3)[C@H](c3ccc(Cl)c(Cl)c3)C2)cc1 (racemic) [Example 44, rac-N-[(3S,4R)-4-(3,4-Dichloro-phenyl)-1-(4-methoxy-benzoyl)-pyrrolidin-3-yl]-4-methoxy-N-methyl-3-trifluoromethyl-benzamide] | 4.24
COc1ccc(C(=O)N(C)[C@@H]2CN(C(=O)c3ccc(N(C)C)cc3)C[C@H]2c2ccc(Cl)c(Cl)c2)cc1C(F)(F)F (racemic) [Example 45, rac-N-[(3S,4R)-4-(3,4-Dichloro-phenyl)-1-(4-dimethylamino-benzoyl)-pyrrolidin-3-yl]-4-methoxy-N-methyl-3-trifluoromethyl-benzamide] | 2.98
COc1ccc(C(=O)N(C)[C@@H]2CN(C(=O)c3ccc(F)cc3)C[C@H]2c2ccc(Cl)c(Cl)c2)cc1C(F)(F)F (racemic) [Example 46, rac-N-[(3S,4R)-4-(3,4-Dichloro-phenyl)-1-(4-fluoro-benzoyl)-pyrrolidin-3-yl]-4-methoxy-N-methyl-3-trifluoromethyl-benzamide] | 3.26
COc1ccc(C(=O)N(C)[C@@H]2CN(C(=O)c3cccc(C#N)c3)C[C@H]2c2ccc(Cl)c(Cl)c2)cc1C(F)(F)F (racemic) [Example 47, rac-N-[(3S,4R)-1-(3-Cyano-benzoyl)-4-(3,4-dichloro-phenyl)-pyrrolidin-3-yl]-4-methoxy-N-methyl-3-trifluoromethyl-benzamide] | 3.65
COc1ccc(C(=O)N(C)[C@@H]2CN(C(=O)c3ccc4occc4c3)C[C@H]2c2ccc(Cl)c(Cl)c2)cc1C(F)(F)F (racemic) [Example 48, rac-N-[(3S,4R)-1-(Benzofuran-5-carbonyl)-4-(3,4-dichloro-phenyl)-pyrrolidin-3-yl]-4-methoxy-N-methyl-3-trifluoromethyl-benzamide] | 5.36
COc1ccc(C(=O)N(C)[C@@H]2CN(C(=O)c3cc(S(C)(=O)=O)ccc3F)C[C@H]2c2ccc(Cl)c(Cl)c2)cc1C(F)(F)F (racemic) [Example 49, rac-N-[(3S,4R)-4-(3,4-Dichloro-phenyl)-1-(2-fluoro-5-methanesulfonyl-benzoyl)-pyrrolidin-3-yl]-4-methoxy-N-methyl-3-trifluoromethyl-benzamide] | 2.53
